According to patent US5039808A, “Therapeutically active cyclopropyl substituted compound” (priority 1988, dated 1991):

What was measured:
gastric acid secretion [1] = test: Inhibition of Gastric Acid Secretion in the Conscious Male Rat (pentagastrin and carbachol stimulated); format: in vivo, Male rats of the Sprague-Dawley strain; details: second hour after administration
Protocol: (§1) The potency for inhibition of acid secretion has been measured in the male rat and the dog, both intravenously and intraduodenally. When it comes to relevance of the animal test data for potency of a given compound in man for the present type of compounds, it is believed that potency in man will correspond to a level somewhere between what is measured in the male rat and what is measured in the dog.
Male rats of the Sprague-Dawley strain were used. They were equipped with cannulated fistulae in the stomach (lumen) and the upper part of the duodenum, for collection of gastric secretions and administration of test substances, respectively. A fourteen days recovery period after surgery was allowed before testing commenced.
Before secretory tests, the animals were deprived of food but not water for 20 h. The stomach was repeatedly washed through the gastric cannula, and 6 ml of Ringer-Glucose given s.c. Acid secretion was stimulated with a infusion during 3.5 h (1.2ml/h, s.c.) of pentagastrin and carbachol (20 and 110 nmol/kg h, respectively), during which time gastric secretions were collected in 30-min fractions. Test substances or vehicle were given iv or id at 90 min after starting the stimulation, in a volume of 1 ml/kg. Gastric juice samples were titrated to pH 7.0 with NaOH, 0.1 mol/L, and acid output calculated as the product of titrant volume and concentration. Further calculations were based on group mean responses from 4-5 rats. The acid output during the periods after administration of test substances or vehicle were expressed as fractional responses, setting the acid output in the 30-min period preceding administration to 1.0. Percentage inhibition was calculated from the fractional responses elicited by test compound and vehicle. ED50 -values were obtained from graphical interpolation on log dose-response curves, or estimated from single-dose experiments assuming a similar slope for all dose-response curves. An estimation of the bioavailability was obtained by calculating the ratio ED50 iv/ED50 id. The results reported are based on gastric acid secretion during the second hour after drug/vehicle administration.

gastric acid secretion [2] = test: Inhibition of Gastric Acid Secretion in the Conscious Dog (histamine stimulated); format: in vivo, Harrier dogs of either sex
Protocol: as §1
(§2) Harrier dogs of either sex were used. They were equipped with a duodenal fistula for the administration of test compounds or vehicle and a cannulated ventricular fistula for the collection of gastric secretions.
Before secretory tests the animals were fasted for about 18 h but water was freely allowed. Gastric acid secretion was stimulated by a 4 h infusion of histamine dihydrochloride (12 ml/h) at a dose producing about 80% of the individual maximal secretory response, and gastric juice collected in consecutive 30-min fractions. Test substance or vehicle was given id or iv 1 h after starting the histamine infusion, in a volume of 0.5 ml/kg body weight. The acidity of the gastric juice samples were determined by titration to pH 7.0, and the acid output calculated. The acid output in the collection periods after administration of test substance or vehicle were expressed as fractional responses, setting the acid output in the fraction preceding administration to 1.0. Percentage inhibition was calculated from fractional responses elicited by test compound and vehicle. ED50 -values were obtained by graphical interpolation on log dose - response curves, or estimated from single-dose experiments under the assumption of the same slope of the dose-response curve for all test compounds. All results reported are based on acid output 2 h after dosing.

[3] = Chemical stability in aqueous buffer solution; format: physicochemical; details: low concentration
Protocol: The chemical stability of various compounds of the invention has been followed kinetically at low concentration at 37°C. in aqueous buffer solution at different pH values. The results in Table 3 show the half life (t 1/2) at pH 7, that is the time period after which half the amount of the original compound remains unchanged.

[4] = Rough Screening Model for bioavailability: ratio ED50 iv/ED50 id of acid secretion inhibition in the rat; parameters: species or system Male rats of the Sprague-Dawley strain; details: in vivo, ratio of ED50 values, read-out: "Bioavailability" measured by the Rough Screening Model, Rat ED50 iv/ED50 id
Protocol: Since the bioavailability model described above is time and labour intensive, and requires a large number of plasma analyses, also a rough screening model, based on relative potencies to inhibit acid secretion, has been used (see for instance: A. Goth, Medical Pharmacology, 7the ed., C. V. Mosby Company, Saint Louis 1974, p 19). Thus, the ratio (called "Bioavailability" in Table 3) between the ED50 at intravenous administration and the ED50 at intraduodenal administration was calculated.
Before secretory tests, the animals were deprived of food but not water for 20 h. The stomach was repeatedly washed through the gastric cannula, and 6 ml of Ringer-Glucose given s.c. Acid secretion was stimulated with a infusion during 3.5 h (1.2ml/h, s.c.) of pentagastrin and carbachol (20 and 110 nmol/kg h, respectively), during which time gastric secretions were collected in 30-min fractions. […] Gastric juice samples were titrated to pH 7.0 with NaOH, 0.1 mol/L, and acid output calculated as the product of titrant volume and concentration. […] The acid output during the periods after administration of test substances or vehicle were expressed as fractional responses, setting the acid output in the 30-min period preceding administration to 1.0. Percentage inhibition was calculated from the fractional responses elicited by test compound and vehicle. […]

[5] = Bioavailability in the dog, AUC method; format: in vivo, Harrier dogs of either sex; details: id vs iv, plasma up to 3 h, extrapolated to infinite time, read-out: Bioavailability measured by the AUC-method F%, Dog
Protocol: Bioavailability is assessed by calculating the quotient between the area under plasma concentration (AUC) curve following introduodenal (id) administration and intravenous (iv) administration from the rat or the dog. Low, therapeutically relevant doses, were used. This method is scientifically recognized as valid for assessing bioavailability (see for instance: M. Rowland and T. N. Tozer, Clinical Pharmacokinetics, 2nd ed., Lea & Febiger, London 1989, p 42).
as §2
Blood samples for the analysis of test compound concentration in plasma were taken at intervals up to 3 h after dosing. Plasma was separated and frozen within 30 min after collection. AUC (area under the plasma concentration - time curve), extrapolated to infinite time, was calculated by the linear trapezoidal rule. The systemic bioavailability (F%) after id administration was calculated as 100 × (AUCid /AUCiv).

[6] = Bioavailability in the Male Rat, AUC method; format: in vivo, Male adult rats of the Sprague-Dawley strain; details: blood, 4 umol/kg, 4 μmol/kg id and iv, up to 4 h, extrapolated to infinity, read-out: Bioavailability measured by the AUC-method F%, Rat
Excerpt: The results from tests on two different animal species, rat and dog, vary in regard to measured level of bioavailability for the same compound. We believe that the rat is the more relevant species for bioavailability testing. This is based on our belief that liver metabolism has the most predominant impact upon bioavailability, and that the liver metabolic pattern in man for this type of compounds is quite similar to that of the male rat (more so than of the female rat and the dog). Moreover, test results of bioavailability in the male rat will tend to give a broader "spread" compared with the test results in the dog, and thus the male rat model will give more clear differences in bioavailability between different compounds. […]
Bioavailability is assessed by calculating the quotient between the area under plasma concentration (AUC) curve following introduodenal (id) administration and intravenous (iv) administration from the rat or the dog. […]
The area under the blood concentration vs time curve, AUC, was determined by the linear trapezoidal rule and extrapolated to infinity by dividing the last determined blood concentration by the elimination rate constant in the terminal phase. The systemic bioavailability (F%) following intraduodenal administration was calculated as [formula]

Row | SMILES | Inhibition of acid secretion, Rat ED50, id (gastric acid secretion [1]; route id) | Inhibition of acid secretion, Rat ED50, iv (gastric acid secretion [1]; route iv) | inhibition of acid secretion (gastric acid secretion [2]; Dog 4, 3 μmol/kg, id (footnote to id column)) | inhibition of acid secretion (gastric acid secretion [2]; Dog 5, 3 μmol/kg, id (footnote to id column)) | Chemical stability at pH 7, half-life (t 1/2) ([3]; 37°C) | half-life ([3]; pH 7, 37°C, read-out: Chemical stability at pH 7, half-life (t 1/2) (converted)) | bioavailability [4] | bioavailability [5] | ED50 (gastric acid secretion [1]; route id, read-out: Inhibition of acid secretion, Rat ED50, id) | ED50 (gastric acid secretion [1]; route iv, read-out: Inhibition of acid secretion, Rat ED50, iv) | ED50 (gastric acid secretion [2]; Canis lupus familiaris, dog, route id, acid output 2 h after dosing) | inhibition of acid secretion (gastric acid secretion [2]; Dog 1, 1 μmol/kg, iv) | inhibition of acid secretion (in words) (gastric acid secretion [2]; Dog 2, 1 μmol/kg, iv) | inhibition of acid secretion (gastric acid secretion [2]; Dog 3, 2 μmol/kg, iv) | bioavailability [6]
1 | CC(C)Oc1ccnc(C[S+]([O-])c2nc3cc(F)ccc3[nH]2)c1 (stereo not drawn) [Ref., 5-fluoro-2-[[(4-isopropoxy-2-pyridinyl)-methyl]sulfinyl]-1H-benzimidazole, reference compound] | 4.0 µmol/kg | 1.8 µmol/kg | 95% | 98% |  |  |  |  |  |  |  |  |  |  | 
2 | [O-][S+](Cc1cc(OCC2CC2)ccn1)c1nc2cc(F)ccc2[nH]1 (stereo not drawn) [Example 1, 5-fluoro-2-[[(4-cyclopropyl-methoxy-2-pyridinyl)methyl]sulfinyl]-1H-benzimidazole] |  |  |  |  | 23 h | 23 h | 55% | 80% | 2.2 µmol/kg | 1.2 µmol/kg | 1 µmol/kg | 35% | no effect | 98% | 82%
